Drawing on ChEMBL document CHEMBL6177970, “Semisynthetic Derivatives of Perovskone: Development of a Promising Class of Antiprotozoal Lead Compounds” (J Nat Prod, 2025), this text covers IC50 and selectivity ratio for 4 molecules.

One may read the IC50 as the concentration that inhibits the measured activity by half. High values mean a need for much substance, low ones inhibition by little substance.

The test system of the first data set is Trypanosoma cruzi. Description: Antiprotozoal activity against Trypanosoma cruzi Tulahuen C2C4 intracellular amastigotes measured after 96 hrs by inverted microscopy. It counts as functional, organism-based. The note with it: Tulahuen C2C4, 96 h.
On to `CC(C)C1=C2OC(C)(C)[C@@H]3CC4[C@H](C)[C@@H](OC(=O)CCC(=O)O)C[C@@]5(CC[C@H]6C(C)(C)CCC[C@]67C[C@]45[C@@]23O7)C1=O` (stereo partly specified), for which 7 µM corresponded to half-maximal inhibition (IC50).
On the same count and under the same terms, the result for `CC(C)C1=C2OC(C)(C)[C@@H]3CC4[C@H](C)[C@@H](O)C[C@@]5(CC[C@H]6C(C)(C)CCC[C@]67C[C@]45[C@@]23O7)C1=O` (stereo partly specified) reads 33.3 µM; that for `CC1=CC[C@]23CC[C@H]4C(C)(C)CCC[C@]45C[C@]24[C@@]1(O)C[C@H]1C(C)(C)OC(=C(C(C)C)C3=O)[C@@]14O5`, 8.4 µM; that for `CC1=CC[C@]23CC[C@H]4C(C)(C)CCC[C@]45C[C@]24C1=C[C@H]1C(C)(C)OC(=C(C(C)C)C3=O)[C@@]14O5`, 15.6 µM.

Test system in the next data set: not listed separately
Description: Selectivity index, ratio of IC50 for cytotoxicity against rat myoblast L6 cells to IC50 for antileishmanial activity against axenically grown amastigotes Leishmania donovani MHOM-ET-67/L82. Format: toxicity, cell-based. The note with it: read-out: Selectivity Index.
As to `CC(C)C1=C2OC(C)(C)[C@@H]3CC4[C@H](C)[C@@H](OC(=O)CCC(=O)O)C[C@@]5(CC[C@H]6C(C)(C)CCC[C@]67C[C@]45[C@@]23O7)C1=O` (stereo partly specified), the selectivity ratio was 22.
`CC(C)C1=C2OC(C)(C)[C@@H]3CC4[C@H](C)[C@@H](O)C[C@@]5(CC[C@H]6C(C)(C)CCC[C@]67C[C@]45[C@@]23O7)C1=O` (stereo partly specified): the selectivity ratio turned out to be 3.3.
Same read-out and setting: the result for `CC1=CC[C@]23CC[C@H]4C(C)(C)CCC[C@]45C[C@]24[C@@]1(O)C[C@H]1C(C)(C)OC(=C(C(C)C)C3=O)[C@@]14O5` reads 1.1; that for `CC1=CC[C@]23CC[C@H]4C(C)(C)CCC[C@]45C[C@]24C1=C[C@H]1C(C)(C)OC(=C(C(C)C)C3=O)[C@@]14O5`, 0.9.

Test system in the next data set: not listed separately
Briefly: Selectivity index, ratio of IC50 for cytotoxicity against rat myoblast L6 cells to IC50 for antiprotozoal activity against Trypanosoma brucei rhodesiense STIB900 trypomastigotes. Format: toxicity, cell-based. The conditions noted are these: read-out: Selectivity Index.
As to `CC(C)C1=C2OC(C)(C)[C@@H]3CC4[C@H](C)[C@@H](OC(=O)CCC(=O)O)C[C@@]5(CC[C@H]6C(C)(C)CCC[C@]67C[C@]45[C@@]23O7)C1=O` (stereo partly specified), the selectivity ratio came out at 0.4.
Still for that read-out and setting: the result for `CC(C)C1=C2OC(C)(C)[C@@H]3CC4[C@H](C)[C@@H](O)C[C@@]5(CC[C@H]6C(C)(C)CCC[C@]67C[C@]45[C@@]23O7)C1=O` (stereo partly specified) reads 5.3.
In the case of `CC1=CC[C@]23CC[C@H]4C(C)(C)CCC[C@]45C[C@]24[C@@]1(O)C[C@H]1C(C)(C)OC(=C(C(C)C)C3=O)[C@@]14O5`, the selectivity ratio amounted to 0.7.
Same read-out and setting: for `CC1=CC[C@]23CC[C@H]4C(C)(C)CCC[C@]45C[C@]24C1=C[C@H]1C(C)(C)OC(=C(C(C)C)C3=O)[C@@]14O5` the value was 0.7.

For another data set, the system named is Leishmania donovani. Description: Antileishmanial activity against axenically grown amastigotes Leishmania donovani MHOM-ET-67/L82 measured after 72 hrs by inverted microscopy. It counts as functional, organism-based. The note with it: MHOM-ET-67/L82, 72 h.
The molecule `CC(C)C1=C2OC(C)(C)[C@@H]3CC4[C@H](C)[C@@H](OC(=O)CCC(=O)O)C[C@@]5(CC[C@H]6C(C)(C)CCC[C@]67C[C@]45[C@@]23O7)C1=O` (stereo partly specified) gave an IC50 of 0.44 µM. In other words, the sub-micromolar range.
Same read-out and setting: for `CC(C)C1=C2OC(C)(C)[C@@H]3CC4[C@H](C)[C@@H](O)C[C@@]5(CC[C@H]6C(C)(C)CCC[C@]67C[C@]45[C@@]23O7)C1=O` (stereo partly specified) the value was 41.2 µM; for `CC1=CC[C@]23CC[C@H]4C(C)(C)CCC[C@]45C[C@]24[C@@]1(O)C[C@H]1C(C)(C)OC(=C(C(C)C)C3=O)[C@@]14O5`, 6 µM; for `CC1=CC[C@]23CC[C@H]4C(C)(C)CCC[C@]45C[C@]24C1=C[C@H]1C(C)(C)OC(=C(C(C)C)C3=O)[C@@]14O5`, 27.2 µM.

For a further data set, the system named is Trypanosoma brucei rhodesiense. Briefly: Antiprotozoal activity against Trypanosoma brucei rhodesiense STIB900 trypomastigotes measured after 72 to 74 hrs. It counts as functional, organism-based.
Settings: not given
In turn, `CC(C)C1=C2OC(C)(C)[C@@H]3CC4[C@H](C)[C@@H](OC(=O)CCC(=O)O)C[C@@]5(CC[C@H]6C(C)(C)CCC[C@]67C[C@]45[C@@]23O7)C1=O` (stereo partly specified) gave an IC50 of 24.4 µM. This lies in the double-digit micromolar range.
Still for that read-out and setting: for `CC(C)C1=C2OC(C)(C)[C@@H]3CC4[C@H](C)[C@@H](O)C[C@@]5(CC[C@H]6C(C)(C)CCC[C@]67C[C@]45[C@@]23O7)C1=O` (stereo partly specified) the value was 25.8 µM.
`CC1=CC[C@]23CC[C@H]4C(C)(C)CCC[C@]45C[C@]24[C@@]1(O)C[C@H]1C(C)(C)OC(=C(C(C)C)C3=O)[C@@]14O5` registered an IC50 of 10.1 µM.
`CC1=CC[C@]23CC[C@H]4C(C)(C)CCC[C@]45C[C@]24C1=C[C@H]1C(C)(C)OC(=C(C(C)C)C3=O)[C@@]14O5` showed an IC50 of 32.1 µM.

Test system in a further data set: not listed separately
Briefly: Selectivity index, ratio of IC50 for cytotoxicity against rat myoblast L6 cells to IC50 for antiprotozoal activity against Trypanosoma cruzi Tulahuen C2C4 intracellular amastigotes. It counts as toxicity, cell-based. The conditions noted are these: read-out: Selectivity Index.
In the case of `CC(C)C1=C2OC(C)(C)[C@@H]3CC4[C@H](C)[C@@H](OC(=O)CCC(=O)O)C[C@@]5(CC[C@H]6C(C)(C)CCC[C@]67C[C@]45[C@@]23O7)C1=O` (stereo partly specified), the selectivity ratio turned out to be 1.4.
On the same count and under the same terms, for `CC(C)C1=C2OC(C)(C)[C@@H]3CC4[C@H](C)[C@@H](O)C[C@@]5(CC[C@H]6C(C)(C)CCC[C@]67C[C@]45[C@@]23O7)C1=O` (stereo partly specified) the value was 4.1.
As to `CC1=CC[C@]23CC[C@H]4C(C)(C)CCC[C@]45C[C@]24[C@@]1(O)C[C@H]1C(C)(C)OC(=C(C(C)C)C3=O)[C@@]14O5`, the selectivity ratio amounted to 0.8.
The same measure, in the same setting: for `CC1=CC[C@]23CC[C@H]4C(C)(C)CCC[C@]45C[C@]24C1=C[C@H]1C(C)(C)OC(=C(C(C)C)C3=O)[C@@]14O5` the value was 1.5.

Test system in the next data set: not listed separately
Description: Selectivity index, ratio of IC50 for cytotoxicity against rat myoblast L6 cells to IC50 for antiplasmodial activity against Plasmodium falciparum NF54 intraerythrocytic forms. It counts as toxicity, cell-based. The conditions noted are these: read-out: Selectivity Index.
Take `CC(C)C1=C2OC(C)(C)[C@@H]3CC4[C@H](C)[C@@H](OC(=O)CCC(=O)O)C[C@@]5(CC[C@H]6C(C)(C)CCC[C@]67C[C@]45[C@@]23O7)C1=O` (stereo partly specified): the selectivity ratio stood at 1.7.
Still for that read-out and setting: the result for `CC(C)C1=C2OC(C)(C)[C@@H]3CC4[C@H](C)[C@@H](O)C[C@@]5(CC[C@H]6C(C)(C)CCC[C@]67C[C@]45[C@@]23O7)C1=O` (stereo partly specified) reads 53.1; that for `CC1=CC[C@]23CC[C@H]4C(C)(C)CCC[C@]45C[C@]24[C@@]1(O)C[C@H]1C(C)(C)OC(=C(C(C)C)C3=O)[C@@]14O5`, 80.
On the same count and under the same terms, the result for `CC1=CC[C@]23CC[C@H]4C(C)(C)CCC[C@]45C[C@]24C1=C[C@H]1C(C)(C)OC(=C(C(C)C)C3=O)[C@@]14O5` reads 26.8.

The subject of a further data set is Plasmodium falciparum. Description: Antiplasmodial activity against Plasmodium falciparum NF54 intraerythrocytic forms measured after 72 hrs by 3H-hypoxanthine based liquid scintillation counting analysis. Format: functional, organism-based.
Settings: not given
`CC(C)C1=C2OC(C)(C)[C@@H]3CC4[C@H](C)[C@@H](OC(=O)CCC(=O)O)C[C@@]5(CC[C@H]6C(C)(C)CCC[C@]67C[C@]45[C@@]23O7)C1=O` (stereo partly specified): half-maximal inhibition (IC50) was put at 5.6 µM.
The molecule `CC(C)C1=C2OC(C)(C)[C@@H]3CC4[C@H](C)[C@@H](O)C[C@@]5(CC[C@H]6C(C)(C)CCC[C@]67C[C@]45[C@@]23O7)C1=O` (stereo partly specified) gave an IC50 of 2.6 µM.
For the molecule `CC1=CC[C@]23CC[C@H]4C(C)(C)CCC[C@]45C[C@]24[C@@]1(O)C[C@H]1C(C)(C)OC(=C(C(C)C)C3=O)[C@@]14O5`, the IC50 was 0.08 µM.
Consider `CC1=CC[C@]23CC[C@H]4C(C)(C)CCC[C@]45C[C@]24C1=C[C@H]1C(C)(C)OC(=C(C(C)C)C3=O)[C@@]14O5`, for which the IC50 was found to be 0.89 µM.

Test system in a further data set: not listed separately
Briefly: Cytotoxicity against rat myoblast L6 cells measured after 72 hrs by inverted microscopy.
Settings: not given
Format: toxicity, cell-based.
In the case of `CC(C)C1=C2OC(C)(C)[C@@H]3CC4[C@H](C)[C@@H](OC(=O)CCC(=O)O)C[C@@]5(CC[C@H]6C(C)(C)CCC[C@]67C[C@]45[C@@]23O7)C1=O` (stereo partly specified), the IC50 at 72 h came out at 9.7 µM.
`CC(C)C1=C2OC(C)(C)[C@@H]3CC4[C@H](C)[C@@H](O)C[C@@]5(CC[C@H]6C(C)(C)CCC[C@]67C[C@]45[C@@]23O7)C1=O` (stereo partly specified) yielded an IC50 at 72 h of 136 µM.
The same measure, in the same setting: for `CC1=CC[C@]23CC[C@H]4C(C)(C)CCC[C@]45C[C@]24[C@@]1(O)C[C@H]1C(C)(C)OC(=C(C(C)C)C3=O)[C@@]14O5` the value was 6.9 µM.
Take `CC1=CC[C@]23CC[C@H]4C(C)(C)CCC[C@]45C[C@]24C1=C[C@H]1C(C)(C)OC(=C(C(C)C)C3=O)[C@@]14O5`: the 50% inhibitory concentration (IC50) at 72 h amounted to 23.9 µM.
